Source: ChEMBL document CHEMBL4619764, “Synthesis of the Cyanobacterial Antibiotics Anaephenes A and B” (2020)
≈ marks a conversion by molar mass, not a printed value.

Experiments:
Format in all cases: functional
Staphylococcus aureus [1] = assay: Antibacterial activity against Staphylococcus aureus ATCC 25923 after 16 hrs by CLSI-based broth microdilution method; settings: ATCC 25923, 16 h
Staphylococcus aureus [2] = assay: Antibacterial activity against methicillin-resistant Staphylococcus aureus ATCC 33591 after 16 hrs by CLSI-based broth microdilution method; settings: ATCC 33591, 16 h
Bacillus cereus = assay: Antibacterial activity against Bacillus cereus ATCC 14579 after 16 hrs by CLSI-based broth microdilution method; settings: ATCC 14579, 16 h

CCC/C=C/CCCCc1cccc(O)c1
MIC (Staphylococcus aureus [1]): 16 µg/mL (≈ 73.3 µM) | MIC (Staphylococcus aureus [2]): 16 µg/mL (≈ 73.3 µM) | MIC (Bacillus cereus): 16 µg/mL (≈ 73.3 µM)

CC(=O)NC[C@H]1CN(c2ccc(N3CCOCC3)c(F)c2)C(=O)O1 [LINEZOLID]
MIC (Staphylococcus aureus [1]): 0.5 µg/mL (≈ 1.48 µM) | MIC (Staphylococcus aureus [2]): 1 µg/mL (≈ 2.96 µM) | MIC (Bacillus cereus): 1 µg/mL (≈ 2.96 µM)

C#CCCC/C=C/CCCCc1cccc(O)c1
MIC (Staphylococcus aureus [1]): 8 µg/mL (≈ 33 µM) | MIC (Staphylococcus aureus [2]): 8 µg/mL (≈ 33 µM) | MIC (Bacillus cereus): 8 µg/mL (≈ 33 µM)
